In patent publication US20170066717A1, “NEW PHENYLAZETIDINECARBOXYLATE OR -CARBOXAMIDE COMPOUNDS” (INVENTIVA, priority 2014, published 2017):

Experiments:
NURR-1/RXRα = target: T1, NURR-1/RXRα (Homo sapiens, UniProt P19793); assay: Transactivation test, NURR-1-Gal4/RXRα, luciferase reporter in Cos-7 cells; assay type: cell-based; conditions: for Emax: COS-7, induction level relative to reference XCT0135908 at 2×10^−5 M (=100%), read-out: hNurr1_RXRaFL Emax (%); for EC50: Cos-7 cells, NURR-1-Gal4/RXRα, luciferase reporter, read-out: hNurr1_RXRaFL EC50
T1 construct: expressed in transfected cells; host or cells: Cos-7 cells

NURR-1/RXRγ = target: T2, NURR-1/RXRγ (Homo sapiens, UniProt P48443); assay: Transactivation test, NURR-1-Gal4/RXRγ, luciferase reporter in Cos-7 cells; assay type: cell-based; conditions: for Emax: COS-7, induction level relative to reference XCT0135908 at 2×10^−5 M (=100%), read-out: hNurr1_RXRgFL Emax (%); for EC50: Cos-7 cells, NURR-1-Gal4/RXRγ, luciferase reporter, read-out: hNurr1_RXRgFL EC50
T2 construct: expressed in transfected cells; host or cells: Cos-7 cells
T2 sequence (P48443 whole entry, the tested form may be a part): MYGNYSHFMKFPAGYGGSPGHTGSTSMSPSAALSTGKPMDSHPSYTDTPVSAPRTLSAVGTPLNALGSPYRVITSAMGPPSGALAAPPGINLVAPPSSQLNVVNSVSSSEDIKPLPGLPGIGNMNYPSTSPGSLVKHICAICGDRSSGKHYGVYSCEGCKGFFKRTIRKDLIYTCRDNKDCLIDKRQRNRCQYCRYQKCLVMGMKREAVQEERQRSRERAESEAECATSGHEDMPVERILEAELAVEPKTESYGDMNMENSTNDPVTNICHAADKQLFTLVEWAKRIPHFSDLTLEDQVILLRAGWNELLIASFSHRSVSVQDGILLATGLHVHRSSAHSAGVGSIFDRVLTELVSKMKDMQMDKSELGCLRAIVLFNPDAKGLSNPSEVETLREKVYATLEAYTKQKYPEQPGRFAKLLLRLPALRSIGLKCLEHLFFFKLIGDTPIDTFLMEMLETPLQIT
T2 sequence (P43354 whole entry partner, the tested form may be a part): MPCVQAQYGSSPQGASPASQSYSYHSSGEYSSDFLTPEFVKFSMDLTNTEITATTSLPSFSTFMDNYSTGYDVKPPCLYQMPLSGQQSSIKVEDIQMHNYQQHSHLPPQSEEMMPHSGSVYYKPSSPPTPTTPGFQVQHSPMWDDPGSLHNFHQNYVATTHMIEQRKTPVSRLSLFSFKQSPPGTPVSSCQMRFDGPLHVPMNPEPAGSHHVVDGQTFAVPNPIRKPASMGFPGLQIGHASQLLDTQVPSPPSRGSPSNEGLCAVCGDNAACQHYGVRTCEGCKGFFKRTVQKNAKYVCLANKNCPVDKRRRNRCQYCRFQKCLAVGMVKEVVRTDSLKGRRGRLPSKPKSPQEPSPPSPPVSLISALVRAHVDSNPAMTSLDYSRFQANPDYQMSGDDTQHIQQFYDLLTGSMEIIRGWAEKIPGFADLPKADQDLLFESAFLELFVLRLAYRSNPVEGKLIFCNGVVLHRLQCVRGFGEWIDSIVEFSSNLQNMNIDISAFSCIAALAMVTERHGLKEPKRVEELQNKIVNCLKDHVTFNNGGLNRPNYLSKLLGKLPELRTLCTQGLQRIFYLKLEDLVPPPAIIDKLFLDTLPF
T2 sequence (P04386 1-147 partner limits assumed): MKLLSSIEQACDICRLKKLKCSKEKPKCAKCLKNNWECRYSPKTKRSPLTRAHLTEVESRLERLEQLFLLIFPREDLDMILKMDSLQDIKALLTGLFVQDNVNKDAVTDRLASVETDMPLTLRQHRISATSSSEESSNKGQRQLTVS

T1 sequence (P19793 whole entry, the tested form may be a part): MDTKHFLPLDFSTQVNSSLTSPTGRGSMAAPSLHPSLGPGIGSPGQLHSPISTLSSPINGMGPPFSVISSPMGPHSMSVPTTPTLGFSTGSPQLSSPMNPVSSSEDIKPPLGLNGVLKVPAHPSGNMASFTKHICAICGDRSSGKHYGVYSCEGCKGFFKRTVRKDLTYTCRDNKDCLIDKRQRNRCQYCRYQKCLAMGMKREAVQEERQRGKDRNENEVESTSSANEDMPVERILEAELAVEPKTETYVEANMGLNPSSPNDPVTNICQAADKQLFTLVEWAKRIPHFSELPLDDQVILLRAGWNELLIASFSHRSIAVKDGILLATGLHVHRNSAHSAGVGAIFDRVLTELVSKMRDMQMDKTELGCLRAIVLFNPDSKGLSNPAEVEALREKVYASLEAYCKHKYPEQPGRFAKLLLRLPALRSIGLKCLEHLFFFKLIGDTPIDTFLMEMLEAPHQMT
T1 sequence (P43354 whole entry partner, the tested form may be a part): as the sequence (P43354 whole entry partner, the tested form may be a part) above
T1 sequence (P04386 1-147 partner limits assumed): as the sequence (P04386 1-147 partner limits assumed) above

SMILES | Emax (NURR-1/RXRα) | EC50 (NURR-1/RXRα) | Emax (NURR-1/RXRγ) | EC50 (NURR-1/RXRγ) | melting point
COc1ccc2c(c1)OC(C)(C)CN2c1cccc(N2CC(C(=O)O)C2)c1 [Example 233, 1-[3-(7-methoxy-2,2-dimethyl-3H-1,4-benzoxazin-4-yl)phenyl]azetidine-3-catboxylic aicd] | 97% | 1570 nM | 52% | 1500 nM | 54 to 56 °C
CC(C)c1ccc2c(c1)OC(C)(C)CCN2c1cccc(N2CC(C(=O)O)C2)c1 [Example 234, 1-[3-(8-isopropyl-2,2-dimethyl-3,4-dihydro-1,5-benzoxazepin-5-yl)phenyl]azetidine-3-carboxylic acid] | 95% | 1710 nM | 81% | 2260 nM | 64 to 68 °C
CCc1ccc2c(c1)OC(C)(C)CN2c1cccc(N2CC(C(=O)[O-])C2)c1.[Na+] [Example 235, sodium 1-[3-(7-ethyl-2,2-dimethyl-3H-1,4-benzoxazin-4-yl)phenyl]azetidine-3-carboxylate] | 102% | 92 nM | 107% | 174 nM | 160 to 188 °C
COc1cc(N2CC(C(=O)O)C2)cc(N2CC(C)(C)Oc3cc(C(F)(F)F)ccc32)c1 [Example 236, 1-[3-[2,2-dimethyl-7-(trifluoromethyl)-3H-1,4-benzoxazin-4-yl]-5-methoxyphenyl]azetidine-3-carboxylic acid] | 93% | 21 nM | 98% | 63 nM | 70 to 75 °C
Cc1ccc(N2CC(C(=O)O)C2)cc1N1CC(C)(C)Oc2cc(C(F)(F)F)ccc21 [Example 237, 1-[3-[2,2-dimethyl-7-(trifluoromethyl)-3H-1,4-benzoxazin-4-yl]-4-methylphenyl]azetidine-3-carboxylic acid] | 82% | 57 nM | 77% | 257 nM | 74 to 83 °C
Cc1c(N2CC(C(=O)O)C2)cccc1N1CC(C)(C)Oc2cc(C(F)(F)F)ccc21 [Example 238] | 86% | 103 nM | 82% | 154 nM | 168 to 171 °C
Cc1ccc(N2CC(C)(C)Oc3cc(C(F)(F)F)ccc32)cc1N1CC(C(=O)O)C1 [Example 239, 1-[5-[2,2-dimethyl-7-(trifluoromethyl)-3H-1,4-benzoxazin-4-yl]2-methylphenyl]azetidine-3-carboxylic acid] | 118% | 234 nM | 102% | 6110 nM | 96 to 99 °C
CC1(C)CN(c2cccc(N3CC(C(=O)[O-])C3)c2)c2ncc(C(F)(F)F)cc2O1.[Na+] [Example 241, sodium 1-[3-[2,2-dimethyl-7-(trifluoromethyl)-3H-pyrido[3,2-b][1,4]oxazin-4-yl]phenyl]-azetidine-3-carboxylate] | 100% | 110 nM | 107% | 194 nM | 123 to 139 °C
CC1(C)CN(c2cccc(N3CC(C(=O)[O-])C3)c2)c2cnc(C(F)(F)F)cc2O1.[Na+] [Example 242, sodium 1-[3-[2,2-dimethyl-7-(trofluoromethyl)-3H-pyrido[4,3-b][1,4]ozaxin-4-yl]phenyl]azetidine-3-carboxylate] | 84% | 227 nM | 76% | 299 nM | 149 to 155 °C
CC1(C)Cc2cc(Cl)ccc2N(c2cccc(N3CC(C(=O)[O-])C3)c2)C1.[Na+] [Example 243, sodium 1-[3-(6-chloro-3,3-dimethyl-2,4-dihydroquinolin-1-yl)phenyl]azetidine-3-carboxylate] | 83% | 58 nM | 89% | 34 nM | 70 to 80 °C
CC(C)CC1Oc2cc(C(F)(F)F)ccc2N(c2cccc(N3CC(C(=O)O)C3)c2)C1=O (centres unmarked) [Example 246, 1-[3-[2-isobutyl-3-oxo-7-(trifluoromethyl)-1,4-benzoxazin-4-yl]phenyl]azetidine-3-carboxylic acid] | 96% | 13 nM | 94% | 53 nM | 86 to 96 °C
CCC1(CC)Oc2cc(C(F)(F)F)ccc2N(c2cccc(N3CC(C(=O)O)C3)c2)C1=O [Example 247, 1-[3-[2,2-diethyl-3-oxo-7-(trifluoromethyl)-1,4-benzoxazin-4-yl]phenyl]azetidine-3-carboxylic acid] | 100% | 19 nM | 92% | 43 nM | 73 to 85 °C
CC(C)C1Oc2cc(C(F)(F)F)ccc2N(c2cccc(N3CC(C(=O)O)C3)c2)C1=O (centres unmarked) [Example 248, 1-[3-[2-isopropyl-3-oxo-7-(trifluoromethyl)-1,4-benzoxazin-4-yl]phenyl]azetidine-3-carboxylic acid] | 105% | 22 nM | 92% | 313 nM | 78 to 87 °C
Cc1ccc2c(c1)OC(C)(C)C(=O)N2c1cccc(N2CC(C(=O)O)C2)c1 [Example 249, 1-[3-(2,2,7-trimethyl-3-oxo-1,4-benzoxazin-4-yl)phenyl]azetidine-3-carboxylic acid] | 95% | 245 nM | 83% | 548 nM | 78 to 91 °C
CC1(C)Oc2cc(C(C)(C)C)ccc2N(c2cccc(N3CC(C(=O)[O-])C3)c2)C1=O.[Na+] [Example 250, sodium 1-[3-(7-tert-butyl-2,2-dimethyl-3-oxo-1,4-benzoxazin-4-yl)phenyl]azetidine-3-carboxylate] | 98% | 289 nM | 83% | 288 nM | 178 to 198 °C
CC(C)c1ccc2c(c1)OC(C)(C)C(=O)N2c1cccc(N2CC(C(=O)O)C2)c1 [Example 251, 1-[3-(7-isopropyl-2,2-dimethyl-3-oxo-1,4-benzoxazin-4-yl)phenyl]azetidine-3-carboxylic acid] | 93% | 514 nM | 88% | 766 nM | 104 to 108 °C
O=C(O)C1CN(c2cccc(N3C(=O)COc4cc(C(F)(F)F)ccc43)c2)C1 [Example 252, 1-[3-[3-oxo-7-(trifluoromethyl)-1,4-benzoxazin-4-yl]phenyl]azetidine-3-carboxylic acid] | 105% | 719 nM | 96% | 2090 nM | 195 to 199 °C
CCC1(CC)CN(c2cccc(N3CC(C(=O)O)C3)c2)c2ccc(C(F)(F)F)cc21 [Example 255, 1-[3-[3,3-diethyl-5-(trifluoromethyl)indolin-1-yl]phenyl]azetidine-3-carboxylic acid] | 104% | 18 nM | 103% | 44 nM | 83 °C
CCC1(CC)C(=O)N(c2cccc(N3CC(C(=O)O)C3)c2)c2ccc(C(F)(F)F)cc21 [Example 258, 1-[3-[3,3-diethyl-2-oxo-5-(trifluoromethyl)indolin-1-yl]phenyl]azetidine-carboxylic acid] | 102% | 236 nM | 107% | 755 nM | 159 to 161 °C
CC1(C)Cc2cc(C(F)(F)F)ccc2N(c2cccc(N3CC(C(=O)O)C3)c2)C1=O [Example 259, 1-[3-[3,3-dimethyl-2-oxo-6-(trifluoromethyl)-4H-quinolin-1-yl]phenyl]azetidine-3-carboxylic acid] | 95% | 101 nM | 98% | 349 nM | 96 to 100 °C
CC(C)c1ccc2c(c1)c1c(n2-c2cccc(N3CC(C(=O)O)C3)c2)CCC(C)(C)C1 [Example 260, 1-[3-(6-isopropyl-3,3-dimethyl-2,4-1H-carbzaol-9-yl)phenyl]azetidine-3-carboxylic acid] | 56% | 255 nM | 56% | 551 nM | 55 to 82 °C
O=C([O-])C1CN(c2cccc(N3c4ccc(Cl)cc4C4CCCC43)c2)C1.[Na+] (centres unmarked) [Example 261, sodium 1-[3-(7-chloro-2,3,3a,8b-tetrahydro-1H-cyclopenta[b]indol-4-yl)phenyl]azetidine-3-carboxylate] | 78% | 31 nM | 95% | 304 nM | 141 to 170 °C
Cc1nc2cc(C(F)(F)F)ccc2n1-c1cccc(N2CC(C(=O)O)C2)c1 [Example 262, 1-[3-[2-methyl-5-(trifluoromethyl)benzimidazol-1-yl]phenyl]azetidine-3carboxylic acid] | 81% | 1700 nM | 98% | 2830 nM | 94 to 96 °C
CCC1(C)C=C(c2cccc(N3CC(C(=O)[O-])C3)c2)c2ccc(C(F)(F)F)cc2O1.[Na+] (centres unmarked) [Example 266, sodium 1-[3-[2-ethyl-2-methyl-7-(trifluoromethyl)chromen-4-yl]phenyl]azetidine-3-carboxylate] | 112% | 1 nM | 113% | ~1 nM | 201 to 214 °C
O=C([O-])C1CN(c2cccc(N3c4ccc(Cl)cc4C4CC43)c2)C1.[Na+] (centres unmarked) [Example 280, sodium 1-[3-(5-chloro-1a,6b-dihydro-1H-cyclopropa[b]indol-2-yl)phenyl]azetidine-3-carboxylate] | 95% | 82 nM | 77% | 148 nM | 62 to 69 °C
